Source: patent US20240277743A1, “RESTORING PHYSIOLOGY WITH SMALL MOLECULE MIMICS OF MISSING PROTEINS” (The Board of Trustees Of The University Of Illinois, priority 2014, published 2024)

Tests used:
wild type S. cerevisiae = assay: Growth of wild type cells treated with AmB; format: cell-based, Saccharomyces cerevisiae
Text: Broth microdilution minimum inhibitory concentration (MIC) assay. The protocol for the MIC broth microdilution assay was adapted from the Clinical and Laboratory Standards Institute document M27-A2 and performed as previously described. Gray, K. C. et. al. Proc. Natl. Acad. Sci. U.S.A. 109, 2234-2239 (2012); Palacios, D. S. et al. J. Am. Chem. Soc. 129, 13804-13805 (2007).
Functional complementation of a protein with a small molecule assay. The protocol for the rescue broth microdilution assay was conducted as described in the MIC assay above with the following additions: trk1atrk2Δ yeast were grown in high potassium (100 mM) YPAD liquid media overnight and transferred to normal potassium YPAD liquid media containing vehicle or the indicated concentration of AmB.

trk1Δtrk2Δ cells = assay: 86Rb+ uptake assay; format: cell-based, Saccharomyces cerevisiae; settings: 3 μM; FIG. 2F
Procedure: ^86Rb^+ uptake assay. The procedure for 86Rb uptake was adapted from Mulet, J. M. et al. Mol. Cell. Biol. 19, 3328-3337 (1999). Overnight yeast cultures were grown as described above. The supernatant was poured off, and the cells were resuspended in sterile water. This wash was repeated two more times. The cells were then resuspended in 40 mL of the potassium starvation/uptake buffer (50 mM succinic acid, 2% glucose, adjusted to pH 5.5 with Tris). After 3 hour incubation in the potassium starvation buffer, cells were centrifuged and washed twice with sterile water. Cells were resuspended in 1 mL of the potassium starvation/uptake buffer. Cell concentration was determined using an INCYTO®; Neubauer disposable hemocytometer, and wild type S. cerevisiae and trk1Δtrk2Δ cells were diluted to the same cell density. 700 μL of the yeast suspension was added to a 1.5 mL Eppendorf tube. After a 5 minute pre-incubation in the potassium starvation/uptake medium, AmB or C35deOAmB was added (final concentration 3 μM) as a DMSO solution. ^86RbCl (1.1 μCi) was then added to the reaction mixtures. Reaction mixtures were vortexed to ensure a homogeneous solution. […] Moist filters were transferred to plastic vials for measuring radioactivity. Radioactivity was monitored using a Perkin Elmer Wizard automatic gamma counter. […]

[1] = system: small molecule-rescued trk1Δtrk2Δ cells versus wild type; assay: Probing sensitivities to known chemical inhibitors assay; format: cell-based, Saccharomyces cerevisiae; settings: FIG. 3E legend
Procedure: Probing sensitivities to known chemical inhibitors assay. Overnight cultures were grown as described in the MIC assay. Prior to harvesting cells, small molecules AmB, nystatin A1 (Riedel-de-Haen), candicidin (TOKU-E), or mepartricin (Santa Cruz Biotechnology) and chemical inhibitors nocodazole (Sigma-Aldrich), ebselen (Cayman Chemical), or bafilomycin BI (Santa Cruz Biotechnology were prepared as stock solutions in DMSO. Saturated cell cultures were centrifuged for 5 minutes at 1000×g. The supernatant was poured off, and cells were resuspended in sterile MilliQ water. Cells were centrifuged again, and supernatant was poured off. The wash step was repeated. The supernatant was poured off, and cells were resuspended in normal potassium YPAD. Cells were diluted with normal potassium YPAD to an OD600 of 0.01. Next, an appropriate volume of AmB, nystatin A1, candicidin, or mepartricin was added to give a final rescuing concentration of 125 nM, 1000 nM, 8 nM, and 8 nM, respectively. A control was prepared by adding the corresponding volume of DMSO to trk1Δtrk2Δ cells. 195 μL of WT+small molecule, 195 μL of trk1Δtrk2Δ+small molecule, and 195 μL of trk1Δtrk2Δ+DMSO were added to a 96 well plate. Next, 5 μL of DMSO or chemical inhibitor was added to each well, with each concentration tested in triplicate for both WT and trk1Δtrk2Δ . The plate was covered and incubated at 30° C. for 24 hours. A BioTek Synergy H1 Hybrid Reader was used to measure the OD600. Utilizing GraphPad PRISM, data were fitted by nonlinear regression, inhibition dose response, variable slope (four parameters) to yield EC50 values with SEM. For statistical analysis, EC50 values from the two treatment groups were compared by unpaired t-test.

[2] = system: CuFi-1 epithelial monolayers (CFTR-deficient human lung epithelia); assay: Airway surface liquid (ASL) height studies by confocal fluorescence microscopy; format: cell-based
Procedure: Human cell lines and growth conditions. NuLi and CuFi-1 cells were cultured at the air-liquid interface as previously described, using a 1:1 mixture of DMEM: Ham's F-12 supplemented with 2% v/v Ultroser G (Crescent Chemical). Zabner, J. et al. Am. J. Physiol. Lung Cell. Mol. Physiol. 284, […]-[…] (2003). The membrane supports used were Millicell 0.4 μm PCF inserts (Millipore PIHP01250) for Ussing chamber studies, Corning Costar 0.4 μm Transwell Clear Polyester Membrane inserts (Corning 3470) for rotational mucus transport studies, and Millicell 1.0 μm PCF inserts (Millipore PIRP15R48) for ASL studies. These membranes were allowed to mature at an air-liquid interface for a minimum of 14 days to reach full differentiation. Airway surface liquid (ASL) height studies. ASL height was studied using an established fluorescent dye assay. Worthington, E. N. et al. Methods Mol. Biol. 742, 77-92 (2011); Myerburg. M. M. et al. Am. J. Respir. Cell. Mol. Biol. 42, 676-684 (2010). Mature, differentiated membranes were grown on Millicell […] polyethylene terephthalate hanging cell culture inserts. Wild type (NuLi) lung epithelia were treated with perfluorocarbon (FC-72) vehicle, and CuFi epithelia were treated with vehicle or 500 nM AmB and incubated for 24 hours at 37° ° C. On the day of imaging. 2.5 μL of a 70 kDa Texas Red-dextran conjugate (Molecular Probes) solution in PBS was added to the apical side of the membranes, followed by 100 μL of FC-770 to prevent evaporation. These were placed on 100 μL of PBS on a 10 mm glass bottom Fluorodish for imaging (World Precision Instruments). Membranes were imaged immediately after dye addition and again at 24 hours to examine dye absorption. Three Z-stack images per membrane in biological n=6 were taken on an Zeiss LSM700 confocal microscope at 40× oil immersion. These images were analyzed using ImageJ to determine the area of fluorescence in the left hand 200-micron width of each image. Images were converted to 8-bit, Gaussian Blur was applied, and made binary. The parameters for Analyze Particles were particles from 1-Infinity μm^2 in size and from 0%-100% circularity.

## C[C@@H]1[C@H](O)[C@@H](C)/C=C/C=C/C=C/C=C/C=C/C=C/C=C/[C@H](O[C@@H]2O[C@H](C)[C@@H](O)[C@H](N)[C@@H]2O)C[C@@H]2O[C@](O)(C[C@@H](O)C[C@@H](O)[C@H](O)CC[C@@H](O)C[C@@H](O)CC(=O)O[C@H]1C)C[C@H](O)[C@H]2C(=O)O [AmB, amphotericin B]
Wild type S. cerevisiae
  growth stimulatory effects on wild type cells: no growth stimulatory effects
trk1Δtrk2Δ cells
  86Rb+ uptake in trk1Δtrk2Δ cells: uptake was restored
[1]
  optimum rescue concentration for trk1Δtrk2Δ cells: 0.5 µM
[2]; 500 nM
  apical surface liquid (ASL) volume of CF epithelia: normal ASL volume was restored
[2]; 500 nM AmB, 24 hours, FIGS. 5A, 5B
  ASL height of CuFi-1 epithelia, compound added apically: normal ASL height was restored
[2]; CuFi-1 epithelia, FIG. 5C
  dose dependence of ASL restoration: dose-dependent fashion
  optimal dose for ASL restoration: 0.5 µM
[2]; FIG. 5B
  ASL height of CuFi-1 epithelia, compound added to the basolateral surface: no increase in ASL height
